Results as given in patent US20240148744A1 (Celgene Corporation, priority 2021, published 2024).

Key:
[1] = test system: Dirofilaria immitis; experiment: Heartworm screen Dirofilaria immitis (stage DiMF/DiL4 not specified in the tables); assay type: cell-based; details: read-out: D. immitis Activity class
[2] = test system: Onchocerca gutturosa adult male worms; experiment: Onchocerca gutturosa in vitro screening model: adult worm motility score and MTT/formazan viability; assay type: cell-based; details: read-out: O. gutt Activity class

Row | Compound | IC50 [1] [nM] | IC50 [2] [nM]
1 | COc1cnc2c(NS(=O)(=O)c3ccc(C(F)(F)F)nc3)cccc2c1 [Compound 11, N-(3-meth-oxyquinolin-8-yl)-6-(trifluoro-methyl)pyr-idine-3-sulfonamide] | 500 to 5000 | 
2 | Cc1cccnc1S(=O)(=O)Nc1cccc2c(C(F)(F)F)ccnc12 [Compound 13, 3-methyl-N-(4-(trifluoro-methyl)quin-olin-8-yl)pyr-idine-2-sulfonamide] | 200 to 500 | < 200
3 | COc1ccnc2c(NS(=O)(=O)c3ncccc3C)cccc12 [Compound 14, N-(4-meth-oxyquinolin-8-yl)-3-meth-ylpyridine-2-sulfonamide] | 500 to 5000 | 500 to 5000
4 | Cc1cccnc1S(=O)(=O)Nc1cccc2c(C)ccnc12 [Compound 15, 3-methyl-N-(4-methyl-quinolin-8-yl)pyridine-2-sulfonamide] | 500 to 5000 | < 200
5 | Cc1cccnc1S(=O)(=O)Nc1c(OCC2CC2)ccc2cccnc12 [Compound 16, N-(7-(cyclo-propylmeth-oxy)quinolin-8-yl)-3-meth-ylpyridine-2-sulfonamide] | < 200 | 500 to 5000
6 | Cc1cccnc1S(=O)(=O)Nc1c(C2CC2)ccc2cccnc12 [Compound 17, N-(7-cyclo-propylquin-olin-8-yl)-3-methylpyr-idine-2-sulfonamide] | 200 to 500 | 200 to 500
7 | Cc1cccnc1S(=O)(=O)Nc1c(N2CCOCC2)ccc2cccnc12 [Compound 18, 3-methyl-N-(7-morpho-linoquinolin-8-yl)pyridine-2-sulfonamide] | 200 to 500 | 200 to 500
8 | Cc1cccnc1S(=O)(=O)Nc1cccc2cc(N3CCOCC3)cnc12 [Compound 21, 3-methyl-N-(3-morpho-linoquinolin-8-yl)pyridine-2-sulfonamide] | 500 to 5000 | < 200
9 | Cc1cccnc1S(=O)(=O)Nc1cccc2ccc(C3CC3)nc12 [Compound 26, N-(2-cyclo-propylquin-olin-8-yl)-3-methylpyr-idine-2-sulfonamide] | 500 to 5000 | 500 to 5000
10 | Cc1cccnc1S(=O)(=O)Nc1cccc2c(C3CC3)ccnc12 [Compound 27, N-(4-cyclo-propylquin-olin-8-yl)-3-methylpyr-idine-2-sulfonamide] | 500 to 5000 | 500 to 5000
11 | Cc1cccnc1S(=O)(=O)Nc1cccc2c(OCC3CC3)ccnc12 [Compound 28, N-(4-(cyclo-propylmeth-oxy)quinolin-8-yl)-3-meth-ylpyridine-2-sulfonamide] | 500 to 5000 | 500 to 5000
12 | Cc1cccnc1S(=O)(=O)Nc1cccc2cc(C3CC3)cnc12 [Compound 29, N-(3-cyclo-propylquin-olin-8-yl)-3-methylpyr-idine-2-sulfonamide] | 500 to 5000 | 500 to 5000
13 | Cc1cccnc1S(=O)(=O)Nc1cccc2c(-c3ccccc3)ccnc12 [Compound 30, 3-methyl-N-(4-phenyl-quinolin-8-yl)pyridine-2-sulfonamide] | 500 to 5000 | 500 to 5000
14 | Cc1cc(NS(=O)(=O)c2nccn2C(C)C)c2ncccc2c1 [Compound 35] | 200 to 500 | 200 to 500
15 | Cc1cnc2c(NS(=O)(=O)c3ncccc3C)cccc2c1 [Compound 66, 3-methyl-N-(3-methyl-quinolin-8-yl)pyridine-2-sulfonamide] | 500 to 5000 | 
16 | Cc1ccc2cccc(NS(=O)(=O)c3ncccc3C)c2n1 [Compound 67, 3-methyl-N-(2-methyl-quinolin-8-yl)pyridine-2-sulfonamide] | 500 to 5000 | 
17 | CCn1ccnc1S(=O)(=O)Nc1cccc2c(Cl)ccnc12 [Compound 85, N-(4-chloro-quinolin-8-yl)-1-ethyl-1H-imidazole-2-sulfonamide] | 500 to 5000 | 
18 | CCn1ccnc1S(=O)(=O)Nc1cccc2c(C)ccnc12 [Compound 104, 1-ethyl-N-(4-methylquin-olin-8-yl)-1H-imidazole-2-sulfonamide] | 200 to 500 | 
19 | COc1ccc2cccnc2c1NS(=O)(=O)c1ccc(C)cn1 [Compound 111, N-(7-methoxy-quinolin-8-yl)-5-methylpyr-idine-2-sulfonamide] | 500 to 5000 | 
20 | Cc1ccc(S(=O)(=O)Nc2cc(Cl)cc3cccnc23)nc1 [Compound 115, N-(6-chloro-quinolin-8-yl)-5-methylpyr-idine-2-sulfon-amide] | 500 to 5000 | 
21 | O=S(=O)(Nc1c(Cl)cc(F)c2cccnc12)c1ncccc1C1CC1 [Compound 140, N-(7-chloro-5-fluoroquinolin-8-yl)-3-cyclo-propylpyridine-2-sulfonamide] | 500 to 5000 | 
22 | O=S(=O)(Nc1cccc2cccnc12)c1ccc(C2CC2)nc1 [Compound 142, 6-cyclopropyl-N-(quinolin-8-yl)pyridine-3-sulfonamide] | 500 to 5000 | 
23 | COc1ccc(S(=O)(=O)Nc2cccc3cccnc23)cn1 [Compound 144, 6-methoxy-N-(quinolin-8-yl)pyridine-3-sulfonamide] | 500 to 5000 | 
24 | O=S(=O)(Nc1cccc2cccnc12)c1ccc(C(F)(F)F)cn1 [Compound 145, N-(quinolin-8-yl)-5-(trifluoromethyl) pyridine-2-sulfonamide] | 200 to 500 | 

Row | Compound | IC50 [1] [nM] | IC50 [2] [nM]
25 | O=S(=O)(Nc1cccc2cccnc12)c1cccnc1C(F)(F)F [Compound 146, N-(quinolin-8-yl)-2-(trifluoromethyl) pyridine-3-sulfonamide] | 500 to 5000 | 
26 | O=S(=O)(Nc1cccc2cccnc12)c1cnccc1C(F)(F)F [Compound 147, N-(quinolin-8-yl)-4-(trifluoromethyl) pyridine-3-sulfonamide] | 500 to 5000 | 
27 | Cc1ccncc1S(=O)(=O)Nc1cccc2cccnc12 [Compound 148, 4-methyl-N-(quinolin-8-yl)pyridine-3-sulfonamide] | 500 to 5000 | 
28 | Cc1cnccc1S(=O)(=O)Nc1cccc2cccnc12 [Compound 149, 3-methyl-N-(quinolin-8-yl)pyridine-4-sulfonamide] | 500 to 5000 | 
29 | Cc1ccc(C(F)(F)F)nc1S(=O)(=O)Nc1cccc2cccnc12 [Compound 163, 3-methyl-N-(quinolin-8-yl)-6-(trifluoromethyl) pyridine-2-sulfonamide] | 500 to 5000 | 
30 | Cc1cc(C)c(S(=O)(=O)Nc2cccc3cccnc23)cn1 [Compound 164, 4,6-dimethyl-N-(quinolin-8-yl)pyridine-3-sulfonamide] | 500 to 5000 | 
31 | Cc1ccc(C(F)(F)F)c(S(=O)(=O)Nc2cccc3cccnc23)n1 [Compound 165, 6-methyl-N-(quinolin-8-yl)-3-(trifluoromethyl) pyridine-2-sulfonamide] | 200 to 500 | 
32 | Cc1cc(C(F)(F)F)ncc1S(=O)(=O)Nc1cccc2cccnc12 [Compound 166, 4-methyl-N-(quinolin-8-yl)-6-(trifluoromethyl) pyridine-3-sulfonamide] | 500 to 5000 | 
33 | O=S(=O)(Nc1cccc2cccnc12)c1nc2ccccc2[nH]1 [Compound 232, N-(quinolin-8-yl)-1H-benzo[d] imidazole-2-sulfonamide] | 500 to 5000 | 
34 | Cc1cnc(S(=O)(=O)Nc2cccc3cccnc23)n1C [Compound 233, 1,5-dimethyl-N-(quinolin-8-yl)-1H-imidazole-2-sulfonamide] | 200 to 500 | 
35 | O=S(=O)(Nc1cccc2cccnc12)c1cncc(C(F)(F)F)c1 [Compound 263, N-(quinolin-8-yl)-5-(trifluoromethyl) pyridine-3-sulfonamide] | 200 to 500 | 
36 | Cc1ccccc1S(=O)(=O)Nc1cccc2cccnc12 [Compound 266, 2-methyl-N-(quinolin-8-yl)benzenesulfon-amide] | 500 to 5000 | 
37 | CCn1ccnc1S(=O)(=O)Nc1cccc2cc(N(C)C)cnc12 [Compound 286, N-(3-(dimethylamino)quinolin-8-yl)-1-ethyl-1H-imidazole-2-sulfonamide] | 200 to 500 | 
38 | CCn1ccnc1S(=O)(=O)Nc1cccc2cc(C(C)=O)cnc12 [Compound 287, N-(3-acetylquinolin-8-yl)-1-ethyl-1H-imidazole-2-sulfonamide] | 200 to 500 | 
39 | CCn1ccnc1S(=O)(=O)Nc1cccc2c(C(C)=O)ccnc12 [Compound 288, N-(4-acetylquinolin-8-yl)-1-ethyl-1H-imidazole-2-sulfonamide] | 200 to 500 | 
40 | O=S(=O)(Nc1ccc(C(F)(F)F)c2cccnc12)c1nccn1-c1ccccc1 [Compound 289, 1-phenyl-N-(5-(trifluoromethyl)quinolin-8-yl)-1H-imidazole-2-sulfonamide] | < 200 | 
41 | CCn1ccnc1S(=O)(=O)Nc1ccc(C#N)c2cccnc12 [Compound 290, N-(5-cyanoquinolin-8-yl)-1-ethyl-1H-imidazole-2-sulfonamide] | 200 to 500 | 
42 | CCn1ccnc1S(=O)(=O)Nc1cccc2c(-c3ccccc3)ccnc12 [Compound 291, 1-ethyl-N-(4-phenylquinolin-8-yl)-1H-imidazole-2-sulfonamide] | < 200 | 
43 | O=S(=O)(Nc1ccc(Oc2cccc(C(F)(F)F)c2)c2cccnc12)c1nccn1CC(F)(F)F [Compound 292, 1-(2,2,2-trifluoroethyl)-N-(5-(3-(trifluoromethyl)phenoxy)quinolin-8-yl)-1H-imidazole-2-sulfonamide] | < 200 | 
44 | CCn1ccnc1S(=O)(=O)Nc1ccc(Br)c2cccnc12 [Compound 293, N-(5-bromoquinolin-8-yl)-1-ethyl-1H-imidazole-2-sulfonamide] | < 200 | 
45 | CCn1ccnc1S(=O)(=O)Nc1ccc(S(C)(=O)=O)c2cccnc12 [Compound 294, 1-ethyl-N-(5-(methylsulfonyl)quinolin-8-yl)-1H-imidazole-2-sulfonamide] | 200 to 500 | 
46 | O=S(=O)(Nc1cc(F)cc2cccnc12)c1nccn1-c1ccc(C(F)(F)F)cc1 [Compound 295, N-(6-fluoroquinolin-8-yl)-1-(4-(trifluoromethyl)phenyl)-1H-imidazole-2-sulfonamide] | < 200 | 
47 | O=S(=O)(Nc1ccc(-c2ccc(F)cc2)c2cccnc12)c1nccn1CC(F)(F)F [Compound 296, N-(5-(4-fluorophenyl)quinolin-8-yl)-1-(2,2,2-trifluoroethyl)-1H-imidazol-2-sulfonamide] | < 200 | 
48 | CCn1ccnc1S(=O)(=O)Nc1cc(C(=O)c2ccccc2)cc2cccnc12 [Compound 297, N-(6-benzoylquinolin-8-yl)-1-ethyl-1H-imidazole-2-sulfonamide] | 200 to 500 | 
